# Measured values reported in patent US8569378B2, “p27 protein inducer” (Chugai Seiyaku Kabushiki Kaisha, priority 2007, dated 2013).
# Test system: p27 protein
# Assay: Quantification of p27 protein by ELISA (p27 protein-inducing activity, EC50)
# Assay type: cell-based, human
# Conditions: NCI-H460 cells, 48 hours, p27 sandwich ELISA
# Procedure: The p27 protein-inducing activities of the compounds or salts listed in Tables 1-1, 1-2 and 2 below were measured as follows.
# Preparation of Cell Lysate:
# NCI-H460 human non-small cell lung cancer cells (ATCC HTB-177) were plated in 6-well plates at 2×10^5 cells/well and incubated overnight. Then, the test substance was added to the medium to a final concentration of 10000 nmol/L, 3000 nmol/L, 100 nmol/L, 30 nmol/L, 10 nmol/L, 3 nmol/L, 1 nmol/L, 0.3 nmol/L, 0.1 nmol/L, 0.03 nmol/L or 0.01 nmol/L and the cells were incubated at 37° C. in 5% CO2 for 48 hours. 150 μL of Cell Lysis Buffer (catalog no. 9803, Cell Signaling) which had been diluted to 1-fold concentration (1 mM PMSF was added immediately before use) was added, and the mixture was allowed to stand on ice for 10 minutes. The Cell Lysis Buffer in which cells were lysed was collected together with cells with a scraper and transferred to a new tube. It was centrifuged at 15000 rpm for 10 minutes at 4° C. and the supernatant was then transferred to a new tube.
# Quantification by Sandwich ELISA:
# Anti-p27 monoclonal antibody (catalog no. 71-9600, Zymed) was diluted to 5 μg/mL in 50 mM carbonate coating buffer (0.4 g/L NaCO3, 0.73 g/L NaHCO3 and 0.04 g/L NaN3 in distilled water), and it was then added at 50 μL/well and allowed to stand overnight at 4° C. to bind the antibody. After washing three times with PBS, 200 μL of blocking solution (0.2% I-Block in PBS) was added to each well. After 1 hour of incubation at room temperature, washing with PBS-T (0.05% Tween 20 in PBS) was performed three times. The sample and recombinant p27 protein standard were serially diluted in Cell Lysis Buffer (catalog no. 9803, Cell Signaling) which had been diluted to 1-fold concentration (1 mM PMSF was added immediately before use), and it was then added at 100 μL/well. After 1 hour of incubation at room temperature, washing with 200 μL of PBS-T was performed three times. HRP-labeled anti-p27 antibody (product no. 610243, BD Transdution Laboratories) was diluted 1:2500 (i.e. to 0.1 μg/mL) in 0.2% I-Block/0.05% PBS-T, and it was then added at 100 μL/well. After 1 hour of incubation at room temperature, washing with 200 μL of PBS-T was performed three times. Chromogenic substrate solution (TMB One Solution, catalog no. G7431, Promega) was added at 100 μL/well and allowed to develop a color reaction at room temperature. After stopping the reaction with 50 μL of 1N H2SO4, the absorbance at 450 nm was measured.
# Calculation of EC50 Values:
# A standard response curve was generated by plotting the amount of p27 protein against the concentration of the test substance. The basal level of response was defined as 0%, while the plateau level where the induction of p27 protein had been maximized was defined as 100%. Finally, the test substance concentration at which 50% induction was achieved was calculated, and it was defined as EC50.
EC50 (Table 1-2) [µM],SMILES,EC50 (Table 1-1) [µM],also measured
,"Cc1c(Cc2cccc(NS(N)(=O)=O)c2F)c(=O)oc2cc(OC(=O)N(C)C)ccc12 [Compound 1j-1-4-1, Dimethylcarbamic acid 3-(3-aminosulfonylamino-2-fluoro-benzyl)-4-methyl-2-oxo-2H-1-benzopyran-7-yl ester]",0.18,
,"CNS(=O)(=O)Nc1cccc(Cc2c(C)c3cc(F)c(OC(=O)N(C)C)cc3oc2=O)c1F [Compound 1j-1-5-2, Dimethylcarbamic acid 6-fluoro-4-methyl-3-{2-fluoro-3-(methylaminosulfonyl)aminobenzyl}-2-oxo-2H-1-benzopyran-7-yl ester]",0.21,
,"CNS(=O)(=O)Nc1cccc(Cc2c(C)c3cc(C#N)c(OC(=O)N(C)C)cc3oc2=O)c1 [Compound 1j-1-9-2, Dimethylcarbamic acid 6-cyano-4-methyl-3-{3-(methylaminosulfonyl)aminobenzyl}-2-oxo-2H-1-benzopyran-7-yl ester]",4.8,
,"Cc1c(Cc2cccc(NS(N)(=O)=O)c2)c(=O)oc2cc(OC(=O)N(C)C)c(I)cc12 [Compound 1j-1-7-1, Dimethylcarbamic acid 3-{3-(aminosulfonyl)aminobenzyl}-6-iodo-4-methyl-2-oxo-2H-1-benzopyran-7-yl ester]",0.16,
0.16,"CNS(=O)(=O)Nc1nccc(Cc2c(C)c3cc(C)c(Oc4ncccn4)cc3oc2=O)c1F [Compound 1j-2-19-2, 3-{2-(Methylaminosulfonyl)amino-3-fluoropyridin-4-ylmethyl}-4-methyl-6-methyl-7-(pyrimidin-2-yloxy)-2-oxo-2H-1-benzopyran]",,
,"Cc1c(Cc2cccc(NS(=O)(=O)N(C)C)c2)c(=O)oc2cc(OC(=O)N(C)C)c(Cl)cc12 [Compound 1j-1-3-3, Dimethylcarbamic acid 6-chloro-4-methyl-3-{3-(dimethylaminosulfonyl)aminobenzyl}-2-oxo-2H-1-benzopyran-7-yl ester]",0.074,
0.22,"CNS(=O)(=O)Nc1nccc(Cc2c(C)c3cc(F)c(Oc4ncccn4)cc3oc2=O)c1F [Compound 1j-2-17-2, 3-{2-(methylaminosulfonyl)amino-3-fluoropyridin-4-ylmethyl}-4-methyl-6-fluoro-7-(pyrimidin-2-yloxy)-2-oxo-2H-1-benzopyran]",,
,"CNC(=O)CS(=O)(=O)Nc1cccc(Cc2c(C)c3ccc(Oc4nccs4)cc3oc2=O)c1F [Compound 1o-3-4-2, 2-{2-Fluoro-3-[4-methyl-2-oxo-7-(thiazol-2-yloxy)-2H-1-benzopyran-3-ylmethyl]phenylsulfamoyl}-N-methyl-acetamide]",,EC50 (Table 2): 2.66 µM
,"CNC(=O)CS(=O)(=O)Nc1cccc(Cc2c(C)c3cc(Cl)c(OC(=O)N(C)C)cc3oc2=O)c1 [Compound 1o-1-3-2, Dimethylcarbamic acid 3-(3-methylcarbamoylmethanesulfonylamino-benzyl)-6-chloro-4-methyl-2-oxo-2H-1-benzopyran-7-yl ester]",0.29,
,"CNS(=O)(=O)Nc1cccc(Cc2c(C)c3ccc(OC(=O)N(C)C)cc3oc2=O)n1 [Compound 1j-1-13-2, Dimethylcarbamic acid 4-methyl-3-{6-(methylaminosulfonyl)aminopyridin-2-ylmethyl}-2-oxo-2H-1-benzopyran-7-yl ester]",,EC50 (Table 2): 2.5 µM
,"CNS(=O)(=O)Nc1cccc(Cc2c(CF)c3cc(Cl)c(OC(=O)N(C)C)cc3oc2=O)c1 [Compound 1j-1-3-2F, Dimethylcarbamic acid 6-chloro-4-fluoromethyl-3-{3-(methylaminosulfonyl)aminobenzyl}-2-oxo-2H-1-benzopyran-7-yl ester]",0.031,
,"CNS(=O)(=O)Nc1cccc(Cc2c(C)c3cc(C)c(Oc4nccs4)cc3oc2=O)c1 [Compound 1j-3-8-2, 3-{3-(Methylaminosulfonyl)aminobenzyl}-4-methyl-7-(thiazol-2-yloxy)-6-methyl-2-oxo-2H-1-benzopyran]",,EC50 (Table 2): 0.54 µM
0.043,"CNS(=O)(=O)Nc1nccc(Cc2c(C)c3cc(Cl)c(Oc4ncccn4)cc3oc2=O)c1F [Compound 1j-2-18-2, 3-{2-(Methylaminosulfonyl)amino-3-fluoropyridin-4-ylmethyl}-4-methyl-6-chloro-7-(pyrimidin-2-yloxy)-2-oxo-2H-1-benzopyran]",,
0.1,"CNS(=O)(=O)Nc1cc(Cc2c(C)c3cc(C)c(Oc4nccs4)cc3oc2=O)ccn1 [Compound 1j-3-20-2, 3-{2-(Methylaminosulfonyl)aminopyridin-4-ylmethyl}-4-methyl-6-methyl-7-(thiazol-2-yloxy)-2-oxo-2H-1-benzopyran]",,
,"CNS(=O)(=O)Nc1cccc(Cc2c(C)c3ccc(Oc4nccs4)cc3oc2=O)c1 [Compound 1j-3-1-2, 3-{3-(Methylaminosulfonyl)aminobenzyl}-4-methyl-7-(thiazol-2-yloxy)-2-oxo-2H-1-benzopyran]",,EC50 (Table 2): 7.1 µM
,"Cc1c(Cc2cccc(NS(=O)(=O)NCCC#N)c2)c(=O)oc2cc(OC(=O)N(C)C)c(Cl)cc12 [Compound 1j-1-21-2, Dimethylcarbamic acid 3-(3-(N-(2-cyanoethyl)sulfamoyl)aminobenzyl)-6-chloro-4-methyl-2-oxo-2H-1-benzopyran-7-yl ester]",0.15,
0.019,"CNS(=O)(=O)Nc1nccc(Cc2c(C)c3cc(C)c(Oc4nccs4)cc3oc2=O)c1F [Compound 1j-3-19-2, 3-{2-(Methylaminosulfonyl)amino-3-fluoropyridin-4-ylmethyl}-4-methyl-6-methyl-7-(thiazol-2-yloxy)-2-oxo-2H-1-benzopyran]",,
,"COCCNS(=O)(=O)Nc1cccc(Cc2c(C)c3cc(Cl)c(OC(=O)N(C)C)cc3oc2=O)c1 [Compound 1j-1-23-2, Dimethylcarbamic acid 3-(3-(N-(2-methoxyethyl)sulfamoyl)aminobenzyl)-6-chloro-4-methyl-2-oxo-2H-1-benzopyran-7-yl ester]",0.22,
0.458,"CNS(=O)(=O)Nc1cc(Cc2c(C)c3cc(Cl)c(Oc4nccs4)cc3oc2=O)ccn1 [Compound 1j-3-12-2, 3-{2-(Methylaminosulfonyl)aminopyridin-4-ylmethyl}-4-methyl-6-chloro-7-(thiazol-2-yloxy)-2-oxo-2H-1-benzopyran]",,
0.048,"CCc1c(Cc2ccnc(NS(=O)(=O)NC)c2F)c(=O)oc2cc(Oc3ncccn3)c(C)cc12 [Compound 1j-2-19-2Me, 3-{2-(Methylaminosulfonyl)amino-3-fluoropyridin-4-ylmethyl}-4-ethyl-6-methyl-7-(pyrimidin-2-yloxy)-2-oxo-2H-1-benzopyran]",,
0.202,"CNS(=O)(=O)Nc1nccc(Cc2c(C)c3cc(C)c(Oc4nccs4)cc3oc2=O)c1Cl [Compound 1j-3-44-2, 3-{2-(Methylaminosulfonyl)amino-3-chloropyridin-4-ylmethyl}-4-methyl-6-methyl-7-(thiazol-2-yloxy)-2-oxo-2H-1-benzopyran]",,
,"CNS(=O)(=O)Nc1nccc(Cc2c(C)c3ccc(Oc4ncccn4)cc3oc2=O)c1F [Compound 1j-2-16-2, 3-{2-(Methylaminosulfonyl)amino-3-fluoropyridin-4-ylmethyl}-4-methyl-7-(pyrimidin-2-yloxy)-2-oxo-2H-1-benzopyran]",,EC50 (Table 2): 0.504 µM
,"Cc1c(Cc2cccc(NS(=O)(=O)CC(=O)N(C)C)c2)c(=O)oc2cc(OC(=O)N(C)C)c(Cl)cc12 [Compound 1o-1-3-3, Dimethylcarbamic acid 3-(3-dimethylcarbamoylmethanesulfonylamino-benzyl)-6-chloro-4-methyl-2-oxo-2H-1-benzopyran-7-yl ester]",0.19,
,"CNS(=O)(=O)Nc1cccc(Cc2c(C)c3ccc(OC(=O)N(C)C)cc3oc2=O)c1F [Compound 1j-1-4-2, Dimethylcarbamic acid 3-(3-methylaminosulfonylamino-2-fluoro-benzyl)-4-methyl-2-oxo-2H-1-benzopyran-7-yl ester]",0.078,

SMILES,EC50 (Table 1-2) [µM],EC50 (Table 1-1) [µM],also measured
"Cc1c(Cc2ccccc2)c(=O)oc2cc(OC(=O)N(C)C)c(Cl)cc12 [Comp. 2, dimethylcarbamic acid 2-oxo-2H-3-benzyl-4-methyl-6-chloro-1-benzopyran-7-yl ester, reference compound]",5.4,,
